According to patent publication US10201610B2, “Interference peptides and use thereof” (The University of Western Australia, priority 2014, dated 2019):
Ends that are not written are not given here.

How the values were obtained:
[1] = tested on: PBX family members (notably, PBX1); assay: Immunoprecipitation and western blotting of TFHDs from SUM149PT extracts; format: binding, human; settings: versus control peptide
Text: To investigate the binding partners of the iPeps in cancer cells, the inventors carried out affinity capture immunoprecipitation experiments using the biotinylated active iPep624 as bait, and the iPep624ΔHEX as negative control. They used total protein extracts from SUM149PT cells to capture endogenous proteins able to bind these peptides in vitro. Elutes were loaded in a 1D-SDS PAGE gel to visualize the enrichment of individual proteins. […] In addition, overexpression of EN1 cDNA into two different breast cell lines confirmed the interaction of the full length EN1 with the endogenous EPRS inside the cells (FIG. 6c). To ascertain whether some downstream well-known effectors of EPRS were also differentially regulated by the iPeps, we performed real time PCR to detect mRNA levels of COLA1, COLA2, S1004A and DDIT3 (CHOP). […] COLA1 and COLA2 encode collagen proteins highly enriched by the amino acid proline and S1004A is a protein involved in metastasis and fibrosis. […] In contrast, the amino acid stress factor DDIT3 is stimulated upon EPRS inhibition. […]
The iPep624 and iPep624ΔHEX were coupled to a C-terminal biotin and immobilized in streptavidin-coated beads. […] Detection was performed with ECL Detection System (GE Healthcare) and quantitated using Image J v1.46 (ImageJ, NCBI).

SUM102 = assay: Cell Titer Glo cell viability assay, breast cancer cell line panel; format: cell-based; settings: SUM102, 8 hours
Procedure: (§1) To test the specificity of the EN1-iPep in cell lines expressing EN1, the inventors delivered the iPeps into a panel of breast cancer cell lines expressing different amounts of EN1.
(§2) All peptides were synthetized at the UNC High-Throughput Peptide Synthesis and Array Facility at UNC. Taxol, Rotenone and Halofuginone (Sigma-Aldrich, St Louis, Mo.) were dissolved in DMSO. A total of […] or 1×10^3 breast cells for peptide and drug treatment respectively, were seeded in 96-well plates. Cells were exposed for 8 hours to the peptide and 48 to 72 hours for drug treatment. The cell viability after peptide/drug treatment was assayed with the Cell Titer Glo (CTG) assay (Promega, Madison, Wis., USA).

SUM159PT = assay: as above; format: cell-based; settings: 8 hours
Procedure: as §1, §2

SUM229 = assay: as above; format: cell-based; settings: SUM229, 8 hours
Procedure: as §1, §2

MCF7 = assay: as above; format: cell-based; settings: MCF7, 8 hours
Procedure: as §1, §2

HUMEC = assay: as above; format: cell-based; settings: 8 hours
Procedure: as §1, §2

MDA-MB-231 = assay: as above; format: cell-based; settings: MDA-MB-231, 8 hours
Procedure: as §1, §2

SUM149PT cells = assay: cells; format: cell-based, human
Text: The EN1-iPeps and iPep controls were first tested in SUM149PT cells carrying high EN1 expression. Cells were first treated with a full-length 29-mer peptide (iPep624) comprising the N-terminal, less conserved amino acid sequences, the hexamotif, and the C-terminal tail. As a control, the inventors generated the iPep624ΔHEX in which the hexamotif was mutated from the wild type (wt) WPAWVY (SEQ ID NO: 13) to the GAAGAG (SEQ ID NO: 15) sequence. These mutations were expected to dramatically abolish the activity of the peptide. Both peptides were included in the culture medium of the basal cancer cells in increasing (0-100 μM) concentrations and incubated for 8 hours at 37° C. Treated cells were first analyzed using the Cell Titer Glo assay, which monitors metabolic viability. […] This calculated value of IC50 is in the range of concentrations observed with other peptides delivered with CPPs.
as §2

IC50 (SUM149PT cells; 8 h): 17.5 µM
Sequence: KKKRKVTDSQQPLVWPAWVYCTRYSDRPS [iPep624]
interaction with PBX family members (notably, PBX1) [1]: specific interactions
cell viability (SUM102): decreased cell viability
cell viability (SUM159PT): decreased cell viability
cell viability (SUM229): decreased cell viability
cell viability (MCF7): no effect on cell viability
cell viability (HUMEC): no effect on cell viability
cell viability (MDA-MB-231): no effect on cell viability
cell viability (SUM149PT cells; SUM149PT, 0-100 μM peptide, 8 hours): decreased cell viability
sensitization to halofuginone (SUM149PT cells; SUM149PT, co-treatment with 500 nM iPep): sensitized even more the basal-like breast cancer cells to halofuginone
breast cancer cell death (SUM149PT cells; SUM149PT, single agent): induced very potent breast cancer cell death
